Experimental findings from ChEMBL document CHEMBL1201862, “PubChem BioAssay data set” (2004) are described below.

Among the test systems are HOP-18; DMS-273; DLD-1; SNB-78; XF498; LXFL 529; KM-20L2; RXF 631; BT-549.
Assay in all cases: NCI anticancer screen, dose series, 48 h

Molecules are shown by their SMILES.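 A five-concentration, 48-hour dose response in 96-well plates underlies each endpoint, interpolated linearly between surrounding concentrations. At the GI50, growth is halved.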 Active and inactive are the calls of the source. No stated cut-off is given here; in the data, active = GI50 up to about 1.1 µM and inactive = higher.

On to `CCOC(=O)C1(C#N)C(c2ccccc2)CC(O)(c2ccc(Cl)cc2)C(C(=O)c2ccc(Cl)cc2)C1c1ccccc1` (stereo not given), for which the GI50 with HOP-18 was > 100 µM (inactive); with DMS-273 it was 67.1 µM (inactive); in the test on DLD-1, > 100 µM (inactive); with SNB-78, 82.4 µM (inactive); in the test with XF498, 65.9 µM (inactive); with LXFL 529, 69.5 µM (inactive). The GI50 in the test with KM-20L2 is > 100 µM (inactive).
Take `NC(=S)NNC(=O)CCC(=O)Nc1ccc(Cl)cc1Cl`: the GI50 with DMS-273 is 38.7 µM (inactive); in the test with RXF 631, > 100 µM (inactive); in the test on DLD-1, > 100 µM (inactive); in the test with SNB-78, > 100 µM (inactive); in the test with LXFL 529, 26.1 µM (inactive); in the test with KM-20L2 it was > 100 µM (inactive).
Regarding `CCN1c2ccccc2-c2c3c1cc(C)cc3c1ccccc1[n+]2CC`, the GI50 in the test with DMS-273 is 0.385 µM (active); in the test with RXF 631 it was 5.24 µM (inactive); in the test with DLD-1, 2.55 µM (inactive); in the test on SNB-78, 2.64 µM (inactive); in the test on LXFL 529 it was 0.384 µM (active).
As to `CC(CN1CCN(CC(C)Nc2ccnc3cc(Cl)ccc23)CC1)Nc1ccnc2cc(Cl)ccc12` (stereo not given), the GI50 was 16.3 µM (inactive) in the test on DMS-273; 12.4 µM (inactive) in the test on RXF 631; 16.9 µM (inactive) with DLD-1; 21.1 µM (inactive) with SNB-78; 23.3 µM (inactive) with XF498; 16.6 µM (inactive) with LXFL 529. For the same compound, the GI50 in the test with KM-20L2 is 13.4 µM (inactive).
For `CSc1ccc2c(cc1=O)[C@@H](NC(=O)c1cccc([N+](=O)[O-])c1)CCc1cc(O)c(O)c(O)c1-2`, the GI50 in the test on HOP-18 is > 100 µM (inactive); in the test on DMS-273 it was 32 µM (inactive); in the test with RXF 631, 36.1 µM (inactive); in the test on DLD-1 it was 43.8 µM (inactive); in the test on LXFL 529, 35.8 µM (inactive); with KM-20L2, 23 µM (inactive).
Take `CC(=O)NNc1nc(C)c(C(/C=C/c2ccc(Cl)cc2)=N\NS(=O)(=O)c2ccc(C)cc2)s1`: the GI50 with HOP-18 is > 100 µM (inactive); in the test with DMS-273, > 100 µM (inactive); in the test with RXF 631 it was > 100 µM (inactive); in the test on DLD-1, > 100 µM (inactive); in the test with SNB-78, > 100 µM (inactive); in the test with XF498 it was > 60.4 µM (inactive). Also, the GI50 in the test on LXFL 529 and in the test with KM-20L2 was > 100 µM (inactive) throughout.
Turning to `CC(=O)OC1COC(N2CCc3ccccc32)C(OC(C)=O)C1OC(C)=O` (stereo not given), the GI50 with HOP-18 is > 100 µM (inactive); in the test with DMS-273, > 100 µM (inactive); in the test on RXF 631, > 100 µM (inactive); in the test on DLD-1, > 100 µM (inactive); with SNB-78 it was > 76.4 µM (inactive); in the test with XF498 it was > 100 µM (inactive). Further, the GI50 in the test with LXFL 529 and in the test with KM-20L2 was > 100 µM (inactive) each time.
As for `CC(C)=CC(=O)N1CCN(C(=O)C=C(C)C)CC1`, the GI50 in the test on HOP-18, in the test on DMS-273, with RXF 631, in the test with DLD-1, in the test with SNB-78 and in the test with XF498 was > 100 µM (inactive) in each case. The GI50 in the test on LXFL 529 and in the test with KM-20L2 was > 100 µM (inactive) throughout.
In the case of `O=C(c1ccccc1)c1cccc(C(=O)c2ccccc2)c1`, the GI50 was > 100 µM (inactive) in the test with HOP-18; > 100 µM (inactive) in the test with DMS-273; > 100 µM (inactive) with DLD-1; > 100 µM (inactive) in the test with SNB-78; > 100 µM (inactive) with XF498; 74.1 µM (inactive) in the test with LXFL 529.
Consider `Clc1cc2ns[s+]c2cc1Cl`, for which the GI50 was 32.3 µM (inactive) in the test with DMS-273; 60.3 µM (inactive) in the test on RXF 631; 13.1 µM (inactive) in the test with DLD-1; > 100 µM (inactive) with SNB-78; > 83.6 µM (inactive) with XF498; 4.72 µM (inactive) in the test with LXFL 529. In addition, the GI50 in the test with KM-20L2 was 14.3 µM (inactive).
With `CC1=C(C(=O)O)N2C(=O)[C@@H](NC(=O)C(c3ccc(O)cc3)N3CSC(=S)N(C(C)C)C3)C2SC1` (stereo not given in full), the GI50 with HOP-18, in the test with DMS-273, in the test with DLD-1, in the test with SNB-78, with XF498 and in the test with LXFL 529 was > 100 µM (inactive) each time. The GI50 in the test with KM-20L2 was > 100 µM (inactive).
In the case of `O=C1CN=C(C[N+](=O)[O-])c2ccccc21`, the GI50 in the test on HOP-18, in the test with DMS-273, in the test with RXF 631, in the test with DLD-1, in the test on SNB-78 and in the test with LXFL 529 was > 100 µM (inactive) in each case. Also, the GI50 in the test on KM-20L2 was > 100 µM (inactive).
Take `CCCCCCCCCCCCOCCCOP(=O)([O-])OCC[N+](C)(C)C`: the GI50 in the test with HOP-18 was 32.7 µM (inactive); with DMS-273, 12.9 µM (inactive); in the test on DLD-1 it was 27.9 µM (inactive); in the test with SNB-78, 25.2 µM (inactive); in the test on XF498 it was 37.7 µM (inactive); in the test on KM-20L2 it was 17 µM (inactive). Moreover, the GI50 in the test with BT-549 was 9.04 µM (inactive).
Turning to `CCOC(=O)CCc1c(C)c2c(OC)cc(OC)cc2oc1=O`, the GI50 in the test on HOP-18 is 32.1 µM (inactive); in the test with DMS-273, 41.8 µM (inactive); with DLD-1, 91.6 µM (inactive); in the test with SNB-78, > 100 µM (inactive); with XF498, 35.2 µM (inactive); in the test with LXFL 529, 62.5 µM (inactive). For the same compound, in the test with KM-20L2, the GI50 is > 100 µM (inactive).
Regarding `N#CC(C#N)=Cc1ccc(Oc2ccccc2)cc1`, the GI50 with HOP-18 was 33.4 µM (inactive); with DMS-273, 18.3 µM (inactive); with RXF 631, 36.3 µM (inactive); with DLD-1, 14.1 µM (inactive); in the test with SNB-78, 28.2 µM (inactive); in the test with XF498 it was 37.8 µM (inactive). Also, the values for the GI50 in the test on LXFL 529 and in the test with KM-20L2 were 25.8 µM (inactive) and > 91.4 µM (inactive), respectively.
With `N#C/C(=C\c1cccc(O)c1)C(N)=O`, the GI50 with DMS-273, in the test on RXF 631, in the test on DLD-1, in the test with SNB-78, with XF498 and in the test on LXFL 529 was > 100 µM (inactive) each time. Moreover, in the test on KM-20L2, the GI50 was > 100 µM (inactive).
For `O=[N+]([O-])c1ccc(C(Cl)C(Cl)c2ccc(C(Cl)C(Cl)c3ccc([N+](=O)[O-])cc3[N+](=O)[O-])cc2)c([N+](=O)[O-])c1` (stereo not given), the GI50 in the test with DMS-273 is 1.47 µM (inactive); with RXF 631, 1.57 µM (inactive); in the test on DLD-1, 1.78 µM (inactive); in the test on SNB-78, 3.44 µM (inactive); in the test with XF498 it was 0.184 µM (active); in the test with LXFL 529 it was 0.92 µM (active). Also, the GI50 in the test with KM-20L2 is 0.0638 µM (active).
Regarding `O=C1C2C3CC(C4C5C=CC(C5)C34)C2C2C3CC(C12)C1C2C=CC(C2)C31` (stereo not given), the GI50 in the test on HOP-18, in the test on DMS-273, in the test with RXF 631, in the test with DLD-1, with SNB-78 and in the test on XF498 was > 100 µM (inactive) throughout. The GI50 in the test with LXFL 529 and in the test with KM-20L2 was > 100 µM (inactive) each time.
Consider `COC(=O)[C@]1(C)CCC[C@@]2(C)C1CCC1=CC3(C(C)C)CCC12OO3` (stereo not given in full), for which the GI50 in the test on RXF 631 was > 100 µM (inactive); in the test on DLD-1, 50.1 µM (inactive); in the test on SNB-78 it was 51.3 µM (inactive); in the test on LXFL 529, 31.4 µM (inactive); with KM-20L2, 94 µM (inactive).
For the compound `COC(=O)CCC(NC(=S)N/N=C(\C)c1nccs1)C(=O)OC` (stereo not given), the GI50 with HOP-18 is 21.2 µM (inactive); in the test with RXF 631, 58.2 µM (inactive); with DLD-1, 40.6 µM (inactive); in the test on SNB-78 it was > 100 µM (inactive); in the test with XF498, > 100 µM (inactive); in the test on LXFL 529, 60.4 µM (inactive). In the test on KM-20L2, the GI50 was 31.8 µM (inactive).
As for `O=C(CC1C(=O)Nc2ccccc2[S+]1[O-])Nc1ccccc1` (stereo not given), the GI50 in the test on HOP-18, in the test with DMS-273, in the test on RXF 631, in the test with DLD-1, in the test on SNB-78 and with XF498 was > 100 µM (inactive) each time. Also, the GI50 with LXFL 529 and in the test on KM-20L2 was > 100 µM (inactive) each time.
Regarding `CC(C)[C@H](CCl)NC(=O)c1cccc(C(=O)N[C@H](CCl)C(C)C)n1` (stereo in doubt), the GI50 in the test on DMS-273, with RXF 631, in the test on DLD-1, in the test with SNB-78, with XF498 and with LXFL 529 was > 100 µM (inactive) each time. The GI50 in the test on KM-20L2 was > 100 µM (inactive).
Regarding `CN(C)CC/C(=N\Nc1ccc(Cl)c(Cl)c1)c1ccccc1`, the GI50 in the test with HOP-18 was 1.52 µM (inactive); with DMS-273, 1.75 µM (inactive); with DLD-1, 3.39 µM (inactive); with SNB-78, 2.4 µM (inactive); with LXFL 529, 1.52 µM (inactive); in the test with KM-20L2, 1.74 µM (inactive).
On to `Oc1cc(-c2ccccn2)nc2cc(F)ccc12`, for which the GI50 was 40.4 µM (inactive) with HOP-18; > 100 µM (inactive) in the test on RXF 631; 81.8 µM (inactive) in the test on DLD-1; > 100 µM (inactive) with SNB-78; > 100 µM (inactive) in the test on LXFL 529; > 100 µM (inactive) in the test on KM-20L2.
